Data reported in US20250025443A1, “COMPOUNDS AND METHODS FOR TREATING CORONA VIRUSES” (CLEAR CREEK BIO, INC., priority 2021, published 2025).
Read-outs that look alike come from different tables or passages of the source.

Target: SARS-CoV-2 Papain-Like Protease (PLpro) (Severe acute respiratory syndrome coronavirus 2 (2019-nCoV) (SARS-CoV-2), UniProt P0DTD1)
Assay: biochemical
Conditions: read-out: PLpro IC50
[1] = PLpro enzymatic fluorescence assay, class symbols
[2] = SARS-CoV-2 PLpro enzymatic fluorescence assay

| Molecule | IC50 [1] [nM] | IC50 [2] [nM] |
| --- | --- | --- |
| CNc1cc(C2(NC(=O)c3cc(OC[C@@H]4CCN4C)ccc3C)CC2)c2cccnc2c1 [Compound 763, (S)-2-Methyl-N-(1-(7-(methylamino)quinolin-5-yl)cyclopropyl)-5-((1-methylazetidin-2-yl)methoxy)benzamide] | < 100 | – |
| COc1ccccc1C1(NC(=O)c2cc(OCCN(C)C)ccc2C)CC1 [Compound 277, 5-(2-(Dimethylamino)ethoxy)-N-(1-(2-methoxyphenyl)cyclopropyl)-2-methylbenzamide] | > 5000 | – |
| Cc1ccc(OC[C@@H]2CCN2)cc1C(=O)NC1(c2cc(-c3ccnn3C)cc3ncccc23)CC1 [Compound 649, (S)-5-(Azetidin-2-ylmethoxy)-2-methyl-N-(1-(7-(1-methyl-1H-pyrazol-5-yl)quinolin-5-yl)cyclopropyl)benzamide] | < 100 | – |
| Cc1ccc(OCCNCc2ccccc2)cc1C(=O)NC1(c2cccc3ccccc23)CC1 [Compound 360, 5-(2-(Benzylamino)ethoxy)-2-methyl-N-(1-(naphthalen-1-yl)cyclopropyl)benzamide] | – | < 100 |
| Cc1ccc(OC[C@H]2C[C@H](O)CN2)cc1C(=O)NC1(c2cccc3ccccc23)CC1 [Compound 414, 5-(((2R,4S)-4-Hydroxypyrrolidin-2-yl)methoxy)-2-methyl-N-(1-(naphthalen-1-yl)cyclopropyl)benzamide] | – | < 100 |
| Cc1ccc(OCCN(C)C)cc1C(=O)NC1(c2cccc(-c3ccccc3)c2C)CC1 [Compound 340, 5-(2-(Dimethylamino)ethoxy)-2-methyl-N-(1-(2-methyl-[1,1′-biphenyl]-3-yl)cyclopropyl)benzamide] | – | 100 to 1000 |
| Cc1ccc(OC[C@@H]2CCN2C)cc1C(=O)NC1(c2cc(-c3ccn(C(F)F)n3)cc3ncccc23)CC1 [Compound 644, (S)-N-(1-(7-(1-(Difluoromethyl)-1H-pyrazol-3-yl)quinolin-5-yl)cyclopropyl)-2-methyl-5-((1-methylazetidin-2-yl)methoxy)benzamide] | < 100 | – |
| Cc1ccc(OC[C@@H]2CCN2C)cc1C(=O)NC1(c2cc(OC(F)(F)F)cc3ncccc23)CC1 [Compound 579, (S)-2-Methyl-5-((1-methylazetidin-2-yl)methoxy)-N-(1-(7-(trifluoromethoxy)quinolin-5-yl)cyclopropyl)benzamide] | < 100 | – |
| Cc1cc(N)c(OCC2CCN2C)cc1C(=O)NC1(c2cccc3ccccc23)CC1 (stereo not drawn) [Compound 487, 4-Amino-2-methyl-5-((1-methylazetidin-2-yl)methoxy)-N-(1-(naphthalen-1-yl)cyclopropyl)benzamide] | – | < 100 |
| C=Cc1cc(C2(NC(=O)c3cc(O[C@H](C)[C@@H]4CCN4C)ccc3C)CC2)c2cccnc2c1 [Compound 758, 2-Methyl-5-((R)-1-((S)-1-methylazetidin-2-yl)ethoxy)-N-(1-(7-vinylquinolin-5-yl)cyclopropyl)benzamide] | < 100 | – |
| Cc1ccc(OC[C@@H]2CCN2)cc1C(=O)NC1(c2cc(-c3cncc(N4CCOCC4)c3)cc3ncccc23)CC1 [Compound 689, (S)-5-(Azetidin-2-ylmethoxy)-2-methyl-N-(1-(7-(5-morpholinopyridin-3-yl)quinolin-5-yl)cyclopropyl)benzamide] | < 100 | – |
| 2-Methyl-5-((2-methylazetidin-2-yl)methoxy)-N-(1-(naphthalen-1-yl)cyclopropyl)benzamide [Compound 394] | – | < 100 |
| CNCCOc1ccc(C)c(C(=O)NC2(c3cccc4ccccc34)CN(C)C2)c1 [Compound 499, 2-Methyl-N-(1-methyl-3-(naphthalen-1-yl)azetidin-3-yl)-5-(2-(methylamino)ethoxy)benzamide] | – | > 5000 |
| Cc1cc2c(cc1C(=O)NC1(c3cccc4ccccc34)CC1)n(C)c(=O)n2C [Compound 237, 1,3,6-Trimethyl-N-(1-(naphthalen-1-yl)cyclopropyl)-2-oxo-2,3-dihydro-1H-benzo[d]imidazole-5-carboxamide] | – | 1000 to 5000 |
| CNCCOc1ccc(C)c(C(=O)NC2(c3cc(-c4cccs4)cc4ccccc34)CC2)c1 [Compound 486, 2-Methyl-5-(2-(methylamino)ethoxy)-N-(1-(3-(thiophen-2-yl)naphthalen-1-yl)cyclopropyl)benzamide] | – | < 100 |
| C=Cc1cc2c(c(C3(NC(=O)c4cc(OC[C@@H]5CCN5C)ccc4C)CC3)c1)CCCN2 [Compound 785, (S)-2-Methyl-5-((1-methylazetidin-2-yl)methoxy)-N-(1-(7-vinyl-1,2,3,4-tetrahydroquinolin-5-yl)cyclopropyl)benzamide] | < 100 | – |
| Cc1ccc(OC[C@@H]2CCN2C)cc1C(=O)NC1(c2cc(C#CC(F)(F)F)cc3ncccc23)CC1 [Compound 803, (S)-2-Methyl-5-((1-methylazetidin-2-yl)methoxy)-N-(1-(7-(3,3,3-trifluoroprop-1-yn-1-yl)quinolin-5-yl)cyclopropyl)benzamide] | < 100 | – |
| Cc1cc2cc(CN)[nH]c2cc1C(=O)NC1(c2ccc3ccccc3c2)CC1 [Compound 248, 2-(Aminomethyl)-5-methyl-N-(1-(naphthalen-2-yl)cyclopropyl)-1H-indole-6-carboxamide] | – | 1000 to 5000 |
| CNc1cc(C)c(C(=O)NC2(c3cc(OC)cc4ncccc34)CC2)cc1OC[C@@H]1CCN1C [Compound 737, (S)-N-(1-(7-Methoxyquinolin-5-yl)cyclopropyl)-2-methyl-4-(methylamino)-5-((1-methylazetidin-2-yl)methoxy)benzamide] | < 100 | – |
| Cc1ccc(OCC(C)N)cc1C(=O)NC1(c2cc(-c3ccccc3)cc3ccccc23)CC1 (stereo not drawn) [Compound 470, 5-(2-Aminopropoxy)-2-methyl-N-(1-(3-phenylnaphthalen-1-yl)cyclopropyl)benzamide] | – | < 100 |
| Cc1ncc(-c2cc(C3(NC(=O)c4cc(OC[C@@H]5CCN5C)ccc4C)CC3)c3cccnc3c2)s1 [Compound 764, (S)-2-Methyl-5-((1-methylazetidin-2-yl)methoxy)-N-(1-(7-(2-methylthiazol-5-yl)quinolin-5-yl)cyclopropyl)benzamide] | < 100 | – |
| COc1cc(C2(NC(=O)c3cc(O[C@H]4CC[C@@H]5CN(C)CCN5C4)ccc3C)CC2)c2cccnc2c1 [Compound 783] | < 100 | – |
| COc1cc(C(C)N2CCC(C(=O)NCc3cccc(F)c3)CC2)c2ccccc2c1 (stereo not drawn) [Compound 524, N-(3-Fluorobenzyl)-1-(1-(3-methoxynaphthalen-1-yl)ethyl)piperidine-4-carboxamide] | – | 100 to 1000 |
| C#Cc1ccc(OCCN(C)C)cc1C(=O)NC1(c2cccc3ccccc23)CC1 [Compound 337, 5-(2-(Dimethylamino)ethoxy)-2-ethynyl-N-(1-(naphthalen-1-yl)cyclopropyl)benzamide] | – | > 5000 |
| Cc1ccc(OC[C@@H]2CCN2C)cc1C(=O)NC1(c2cc(C(F)(F)F)cc3ncccc23)CC1 [Compound 600, (S)-2-Methyl-5-((1-methylazetidin-2-yl)methoxy)-N-(1-(7-(trifluoromethyl)quinolin-5-yl)cyclopropyl)benzamide] | – | < 100 |
| Cc1ccc(C(N)=O)cc1C(=O)NC1(c2cccc3ccccc23)CC1 [Compound 257] | – | 100 to 1000 |
| Cc1ccc(OC[C@H]2C[C@@H](F)CN2C)cc1C(=O)NC1(c2cccc3ccccc23)CC1 [Compound 437, 5-(((2R,4R)-4-Fluoro-1-methylpyrrolidin-2-yl)methoxy)-2-methyl-N-(1-(naphthalen-1-yl)cyclopropyl)benzamide] | – | < 100 |
